The source of these data is US20250382306A1, “HETEROCYCLIC COMPOUND AS TAAR1 LIGAND AGONIST” (SHANDONG LUYE PHARMACEUTICAL CO., LTD., priority 2022, published 2025).

One data set has as its target T1, TAAR1 (Homo sapiens, UniProt Q96RJ0).
T1 construct: expressed in transfected cells; host or cells: CHO-K1 (cAMP Hunter TAAR1 Gs cell line)
T1 sequence (Q96RJ0 1-339): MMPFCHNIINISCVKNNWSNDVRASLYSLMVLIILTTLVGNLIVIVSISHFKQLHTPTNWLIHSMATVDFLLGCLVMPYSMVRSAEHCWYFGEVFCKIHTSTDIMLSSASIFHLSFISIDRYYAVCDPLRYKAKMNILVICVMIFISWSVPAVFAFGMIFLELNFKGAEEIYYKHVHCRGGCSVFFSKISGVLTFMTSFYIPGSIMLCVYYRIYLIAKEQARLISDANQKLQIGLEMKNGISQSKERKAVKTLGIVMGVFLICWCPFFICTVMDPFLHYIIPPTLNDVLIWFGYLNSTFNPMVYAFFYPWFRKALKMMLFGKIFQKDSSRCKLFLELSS
As to the kind of experiment: In vitro TAAR1 functional activity (cAMP Hunter CHO-K1 TAAR1 Gs cell line, HitHunter cAMP assay). The settings on record: cAMP Hunter CHO-K1 TAAR1 Gs cell line, chemiluminescence cAMP readout; read-out: EC50. The format is cell-based. The method, then:
Test Example 1. In Vitro Evaluation of Intrasynaptic and Extrasynaptic Functional Activities in Cells
Cell: CAMP Hunter™ CHO-K1 TAAR1 Gs Cell Line
Assay Reagent: HitHunter cAMP Assay Detection Kit
Experimental Instrument: PerkinElmer Envision™ Chemiluminescence Signal Detector
Experimental method: cell treatment: The cAMP Hunter cell strain was cultured at 37° C. with 5% CO2 to 70-80% confluence. The cells were harvested, and the cell density was adjusted to 1.5×10^4 cells/mL. The cells were seeded in a white-wall 384-well microwell plate at a volume of 20 μL, and incubated at 37° C. with 5% CO2 overnight. The cell medium was discarded, and 15 μL of 2:1 HBSS/10 mM Hepes:cAMP XS+Ab reagent was added to each well. The mother solution of the sample was diluted with an assay buffer in a concentration gradient to a 4× sample, and 5 μL of the 4× sample was added to each well. The plate was incubated at 37° C. or room temperature for 30 or 60 min. […] 20 μL of cAMP XS+EA reagent was added to each well, and the plate was incubated at room temperature for 3 h. The chemiluminescence signal was read using a PerkinElmer Envision™ detector.
Data analysis: EC50 was calculated using CBIS data analysis software (ChemInnovation, CA). The activity percentage was calculated using the following formula: % activity=100%×(test sample average RLU−solvent control average RLU)/(maximum control average RLU−solvent control average RLU).
Background: cAMP levels reflect the balance of adenylyl cyclase and phosphodiesterase activity.

The nature of data set [1]: Pharmacokinetic study in rats. The format is in vivo, SD rats. The settings on record: SD rats; for Cmax: read-out: Cmax or C0. The method, then:
Test Example 2. Pharmacokinetic Study in Rats
Rat: SD Rats Weighing 200-250 g
(§1) Reagent: acetonitrile, MERCK; methanol, MERCK; formic acid, Sigma; tolbutamide, Sigma.
Instrument: water purification equipment, Millipore; electronic balance, METTLER TOLEDO; high-speed benchtop centrifuge, Thermno; water bath thermostatic oscillator, Shanghai Yiheng Technical Co., Ltd.; vortex oscillator, Thermno; liquid chromatography-mass spectrometry, AB SCIEX.
Method: The SD rats were dosed intravenously (IV) and intragastrically (IG), 3 SD rats in each group. Compounds 1-b, 2-a and L27 were separately administered, and the vehicles were DMSO and Tween 80. […] Whole blood samples were separately collected at 0, 5 m (intravenous), 15 m, 30 mi, 1 h, 2 h, 4 h, 6 h, 8 h, 12 h, and 24 h. The whole blood was placed in a heparinized EP tube and centrifuged at 13,500 rpm for 10 min to separate the plasma. After pretreatment, the plasma was analyzed by LC-MS/MS to determine the concentration of the test compound in the plasma.

Data set [2] can be described thus: Pharmacokinetic study in dogs. The settings on record: dog, in vivo, po; Beagle dogs, plasma, after intragastric L15 hydrochloride 2 mg/kg (as free base); label = analyte. The method, then: Test Example 3. Pharmacokinetic Study in Dogs
Dog: Beagle dogs weighing 11-13 kg
as §1
Instrument: water purification equipment, Millipore; electronic balance, METTLER TOLEDO; high-speed benchtop centrifuge, Thermo; water bath thermostatic oscillator, Shanghai Yiheng Technical Co., Ltd.; vortex oscillator, Thermo; liquid chromatography-mass spectrometry, AB SCIEX.
Method: L15 hydrochloride was administered intragastrically at a dose of 2 mg/kg (calculated based on free base), 2 Beagle dogs in each group. The vehicles were DMSO and Tween 80. Whole blood samples were separately collected at 0, 5 min, 15 min, 30 min, 1 h, 2 h, 3 h, 4 h, 6 h, 8 h, 12 h, and 24 h. The whole blood was placed in a heparinized EP tube and centrifuged at 13,500 rpm for 10 min to separate the plasma. After pretreatment, the plasma was analyzed by LC-MS/MS to determine the concentration of the test compound in the plasma.

The subject of data set [3] is MK801-induced overactivity. As to the kind of experiment: Pharmacodynamic study in mice, MK-801 overactivity model (Test Example 4). Conditions: C57 mice. The format is in vivo. The method, then:
Test Example 4. Pharmacodynamic Study in Mice
Mouse: C57 mice weighing 20-22 g
Instrument: electronic balance, METTLER TOLEDO; TopScan monitoring system.
(§2) 4.1. model preparation: MK-801 induces overactivity in mice and is commonly used for preclinical evaluation of antipsychotics. The modeling method in this test was: The mice were injected with MK-801 intraperitoneally in at single dose of 0.8 mg/kg.
4.2. Experimental grouping: The mice were randomly divided into model group, 1-b group, and L27 group, 10 animals in each group, as shown in Table 5.
(§3) The mice were randomly divided into groups. At the start of the test, the test samples were administered intragastrically at an single dose according to the doses shown in Table 5, and the mice were placed in an activity chamber. After 30 min, each mouse was injected intraperitoneally with 0.8 mg/kg of MK-801 for modeling, and placed in the activity chamber again. The movement distance (mm) of the mice after modeling (i.e., within 30-60 min after administration) was recorded and analyzed using a TopScan monitoring system.
(§4) […] The total movement distance of the mice after modeling (30-60 min after administration) was recorded.
(§5) Data analysis and processing were carried out using Graphpad 5.0 software. ANOVA test was used to compare the total movement distance between each administration group and model group within 30-60 min.

Data set [4] concerns MK801-induced overactivity. As to the kind of experiment: Pharmacodynamic study in mice, MK-801 overactivity model (Test Example 5). The class given is in vivo, C57 mice. Conditions: 3 mg/kg intragastric. How it is done: as §2, §3, §4, §5
Test Example 5. Pharmacodynamic Study in Mice
5.1. Experimental grouping: The mice were randomly divided into model group, 1-b group, and 2-a group, 5 animals in each group, as shown in Table 6. The model preparation, test method, observation of indexes and statistical method were the same as those in Test Example 4.

The mark [5] stands for this setting: Sprague-Dawley, rat, in vivo, po, plasma, 1-b IG 5 mg/kg, analyte 1-b.
[6] abbreviates: Sprague-Dawley, rat, in vivo, plasma, 1-b IV 2 mg/kg, analyte 1-b.

As to `c1cc2c(s1)[C@@H]1CNCCN1CC2` [Compound 1-b], the EC50 (in general, the concentration at which the effect is half-maximal) at TAAR1 is 62 nM. The molecule also came in with a F in data set [1] (1-b IG 5 mg/kg vs IV 2 mg/kg) of 66.6 ± 8.12%. In data set [1] (1-b IV 2 mg/kg, analyte 1-b), this molecule gave a Cl_obs of 28.8 ± 3.25 mL/min/kg and a Vss_obs of 2.91 ± 0.68 L/kg. Moreover, in data set [1] (setting [5]), the AUC(0-t) (usually the area under the concentration-time curve up to a stated or last time point) came to 9.95 ± 1.21 µM·h; the mean residence time MRT last (commonly a mean duration of stay, worked out from the concentration-time curve) was found to be 2.33 ± 0.465 h; the time of peak concentration (Tmax) (as a rule, the time at which the peak concentration occurs) stood at 0.417 ± 0.144 h; the half-life (usually the time in which the quantity being followed falls by half) is 1.85 ± 0.217 h. The highest concentration (Cmax) (in general, the peak of the concentration-time curve) in data set [1] (setting [5]) came out at 3.73 ± 0.846 µM. Further, in data set [1] (setting [6]), the exposure AUC(0-t) is 5.97 ± 0.642 µM·h, the mean residence time MRT last stood at 1.6 ± 0.203 h, the half-life was 1.76 ± 0.344 h and the Cmax worked out at 7.54 ± 2.28 µM. In data set [2], the AUC(0-t) was found to be 0.0547 µM·h, the maximum concentration (Cmax) amounted to 0.0223 µM, the MRT last was 1.68 h and the time of peak concentration (Tmax) was determined as 1.5 h. In addition, the “effect on MK801-induced overactivity (conclusion)” value in data set [3] (10 mg/kg intragastric) is “good inhibition effect”. The “total movement distance after modeling” value in data set [3] (1-b 10 mg/kg intragastric, MK-801 0.8 mg/kg i.p., 30-60 min after administration, p<0.05 vs model group 63052.14±21618.80 mm) is on record as 6493.12±6228.87 mm. Moreover, in data set [4], the “effect on MK801-induced overactivity (conclusion)” value is listed as “good inhibition effect”. The “total movement distance after modeling” value in data set [4] (MK-801 0.8 mg/kg i.p., 30-60 min after administration, p<0.05 vs model group 101535.71±26076.11 mm) worked out at 13644.54±10814.85 mm.
